Assay results taken from publication PMC10194703 (Nature structural & molecular biology, 2023).
“And” between values parts separate entries of the source, which are not always exact repeats. Equal values may be shown once.

What was measured:
[1] = target: His6-C-linker-CNBD construct of SthK (residues 226-423); assay: AFM imaging
[2] = target: His6-C-linker-CNBD construct of SthK (residues 226-423); assay: SEC
SthK = details: cited from earlier work; for open probability Po: depolarized membrane potentials (+100 mV)
SthK CNBD [3] = assay: AFM single molecule force spectroscopy; assay type: binding; details: for Ka: individual binding sites, Ka=Ka(2D)mr, mr=0.03 binding-sites/nm^2; for Ka(2D): probabilistic binding frequency model fit, contact time 0.02-1.00 s
His6-C-linker-CNBD = target: T1, His6-C-linker-CNBD (Winmispira thermophila, UniProt G0GA88); assay: microscale thermophoresis; assay type: binding; details: 50 nM labeled His6-C-linker-CNBD; cN 0.00305-100 μM
T1 sequence (G0GA88 226-423): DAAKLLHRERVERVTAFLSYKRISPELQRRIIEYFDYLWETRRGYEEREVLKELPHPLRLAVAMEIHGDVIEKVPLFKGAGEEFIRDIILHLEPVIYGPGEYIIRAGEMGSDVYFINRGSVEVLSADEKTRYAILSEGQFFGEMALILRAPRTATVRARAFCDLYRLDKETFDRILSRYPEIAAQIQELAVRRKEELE

SthK CNBD [4] = assay: joint Bell-Evans fitting of AFM-SMFS and MDS dynamic force spectra; details: Bell-Evans fit, AFM-SMFS + MDS joint data; 0.02 s bond formation
[5] = target: SthK full-length channels; details: read-out: affinity; SthK full-length channels in amphipol; cited from earlier work
[6] = interchange between state 1 and state 2 bonds

stoichiometry N [1]	stoichiometry N [2]	koff (SthK CNBD [3]; Bell-Evans fit, AFM-SMFS only, 0.02 s (20 ms) bond formation time) [s⁻¹]	kon(2D) (SthK CNBD [3]; kon(2D)=Ka(2D)koff) [nm^2/s]	kon (SthK CNBD [3]; molecular on rate, kon=Kakoff) [s⁻¹]	Kd (His6-C-linker-CNBD) [nM]	Compound	open probability Po (SthK)	fold lower open probability than cAMP (SthK; single channel recordings)	Ka (SthK CNBD [3])	Ka(2D) (SthK CNBD [3]) [nm^2]	koff (SthK CNBD [4]) [s⁻¹]	Kd [5] [nM]	bond formation time needed to fully populate state 2 (SthK CNBD [3])	k1 (forward rate constant for entering the deeper binding mode) (SthK CNBD [3]; [6])	k−1 (reverse rate constant for entering the deeper binding mode) (SthK CNBD [3]; [6])
4	4	–	–	–	–	His6-C-linker-CNBD construct of SthK (residues 226-423) (domain or fragment)	–	–	–	–	–	–	–	–	–
–	–	7.7 ± 1.5	37.8 ± 9.7	1.2 ± 0.3	3300 ± 1800	Nc1nc2c(ncn2[C@@H]2O[C@@H]3COP(=O)(O)O[C@H]3[C@H]2O)c(=O)[nH]1 [cGMP, cyclic guanosine monophosphate]	~ 0.001	~ 1000 fold	0.15 ± 0.02	4.9 ± 0.5	13.9 ± 6.9	2700	–	–	–
–	–	–	–	–	–	Nc1ncnc2c1ncn2[C@@H]1O[C@@H]2COP(=O)(O)O[C@H]2[C@H]1O [cAMP, cyclic adenosine monophosphate]	~ 0.4	–	0.31 ± 0.04	10.4 ± 1.3	–	600	~ 0.2 s	5.4 ± 0.7 1/s and 5.4±0.7 * 1/s	4.8 ± 0.8 1/s and 4.8±0.8 * 1/s
